Test systems include NCI/ADR-RES ovarian; HCT-116 colon; SN12C renal; SF-268 CNS; NCI-H460 lung; ACHN renal; K-562 leukemia; OVCAR-3 ovarian; U251 CNS; HS 578T breast.
Common to all, as to assay: NCI-60 cell line screen, 48 h

“And” between values parts separate entries of the source, which are not always exact repeats. Equal values may be shown once.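 Cultured in 96-well plates, cells were exposed to test compound for 48 hours across five concentrations. At the GI50, growth is halved. The concentration for full growth arrest is given as TGI.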

For the molecule `COc1cc([N+](=O)[O-])c(OC)cc1-c1nc2n(c1/C(N)=N/C(=N)N)CCS2`, the GI50 in the experiment on NCI/ADR-RES ovarian was greater than 100 µM; in the experiment on HCT-116 colon, 20.8 µM; with SN12C renal it was greater than 100 µM; in the experiment on SF-268 CNS, 45.8 µM; in the experiment with NCI-H460 lung, 70.1 µM; in the experiment with ACHN renal it was 12.3 µM. The GI50 in the experiment with K-562 leukemia is greater than 100 µM; in the experiment on OVCAR-3 ovarian, 33.5 µM; in the experiment with U251 CNS, 9.12 µM; in the experiment on HS 578T breast, 32.5 µM. Moreover, the TGI with NCI/ADR-RES ovarian, with HCT-116 colon, with SN12C renal, in the experiment with SF-268 CNS, with NCI-H460 lung and in the experiment with ACHN renal was greater than 100 µM in each case. The TGI in the experiment with K-562 leukemia, in the experiment on OVCAR-3 ovarian, in the experiment with U251 CNS and in the experiment with HS 578T breast was greater than 100 µM in each case.

In the case of `C(=C\c1nc2ccccc2s1)/c1ccc(N2CCOCC2)s1`, the GI50 in the experiment on NCI/ADR-RES ovarian is 37.1 µM; with HCT-116 colon it was 59.9 µM; in the experiment with SN12C renal, 43.3 µM; in the experiment with SF-268 CNS, 44 µM; in the experiment on NCI-H460 lung, 51.3 µM; in the experiment with ACHN renal it was 33.4 µM. Moreover, the GI50 in the experiment on K-562 leukemia was greater than 100 µM; in the experiment on OVCAR-3 ovarian, 61.7 µM; in the experiment on U251 CNS, 44.8 µM; in the experiment on HS 578T breast, 37 µM. Besides, the TGI with NCI/ADR-RES ovarian, in the experiment on HCT-116 colon, in the experiment on SN12C renal, in the experiment with SF-268 CNS, with NCI-H460 lung and in the experiment with ACHN renal was greater than 100 µM each time. Besides, the TGI in the experiment on K-562 leukemia, in the experiment with OVCAR-3 ovarian, in the experiment with U251 CNS and with HS 578T breast was greater than 100 µM throughout.

For the molecule `Cc1cccc2c1NC(=O)C2(c1ccc(O)cc1)c1ccc(O)cc1`, the GI50 is 0.133 µM in the experiment with NCI/ADR-RES ovarian; 11.3 µM in the experiment with HCT-116 colon; less than 0.01 µM with SN12C renal; 19.8 µM in the experiment with SF-268 CNS; 18.5 µM with NCI-H460 lung; 12.4 µM with ACHN renal. The GI50 in the experiment on K-562 leukemia was 19.1 µM; with OVCAR-3 ovarian it was less than 0.01 µM; with U251 CNS, 18.9 µM; in the experiment on HS 578T breast it was less than 0.01 µM. In addition, the TGI in the experiment on NCI/ADR-RES ovarian was greater than 100 µM; with HCT-116 colon, 25.5 µM; with SN12C renal it was 15.4 µM; with SF-268 CNS, greater than 100 µM; in the experiment on NCI-H460 lung, 40.8 µM; in the experiment with ACHN renal it was greater than 100 µM. Besides, the TGI was 99.5 µM in the experiment on K-562 leukemia, 14 µM in the experiment on OVCAR-3 ovarian, 48.9 µM in the experiment with U251 CNS and less than 0.0192 µM in the experiment on HS 578T breast.

Turning to `Cc1nc2sc(C(=O)Nc3cccc(Cl)c3C)c(N)c2cc1C(=O)c1ccccc1`, the GI50 in the experiment with NCI/ADR-RES ovarian was 0.192 µM; in the experiment on HCT-116 colon, 0.22 µM; in the experiment with SN12C renal, 0.568 µM; with SF-268 CNS, 0.375 µM; in the experiment with NCI-H460 lung, 0.198 µM; in the experiment with ACHN renal, 0.344 µM. In addition, the GI50 in the experiment with K-562 leukemia is 0.199 µM; with OVCAR-3 ovarian, 0.176 µM; in the experiment with U251 CNS, 0.219 µM; with HS 578T breast, 0.194 µM. The TGI with HCT-116 colon is greater than 50 µM; in the experiment with SN12C renal it was greater than 50 µM; in the experiment on SF-268 CNS it was greater than 50 µM; in the experiment with NCI-H460 lung it was 10.3 µM; in the experiment on ACHN renal, greater than 50 µM; in the experiment on K-562 leukemia, greater than 50 µM. In addition, the TGI with OVCAR-3 ovarian was 1.37 µM; in the experiment on U251 CNS it was greater than 50 µM; with HS 578T breast it was greater than 50 µM.

Turning to `CCCN(CCC)c1ccc(/C=N/NC(=O)c2cccnc2)cc1`, the GI50 in the experiment on NCI/ADR-RES ovarian was 18 µM; in the experiment on HCT-116 colon it was 23.5 µM; in the experiment with SN12C renal, 40.4 µM; in the experiment on SF-268 CNS, 31.2 µM; in the experiment with NCI-H460 lung, 30.3 µM; with ACHN renal it was 39.5 µM. For the same molecule, the GI50 in the experiment with K-562 leukemia is 8.02 µM; in the experiment with OVCAR-3 ovarian, 20.1 µM; in the experiment with U251 CNS it was 26.9 µM; in the experiment on HS 578T breast, 22 µM. The TGI with NCI/ADR-RES ovarian, with HCT-116 colon, with SN12C renal, in the experiment on SF-268 CNS, in the experiment with NCI-H460 lung and in the experiment with ACHN renal was greater than 100 µM in each case. Besides, the TGI was greater than 100 µM in the experiment with K-562 leukemia, 45.3 µM with OVCAR-3 ovarian, greater than 100 µM in the experiment on U251 CNS and 87.1 µM with HS 578T breast.

For the molecule `COc1cc(C(=O)Nc2cc(O)c(C/C=C(\C)CCC=C(C)C)c(O)c2)cc2c1O[C@]1(C)CC[C@@H](O)C(C)(C)[C@H]1C2`, the GI50 in the experiment on NCI/ADR-RES ovarian is 9.22 µM and 6.62 µM; in the experiment with HCT-116 colon it was 0.143 µM and 0.185 µM; in the experiment on SN12C renal, 1.95 µM and 2.44 µM; in the experiment on SF-268 CNS, 1.1 µM and 0.741 µM; in the experiment with NCI-H460 lung, 0.083 µM and 0.101 µM; in the experiment with ACHN renal, 1.22 µM. Further, the GI50 in the experiment with K-562 leukemia was 0.0359 µM and 0.0659 µM; in the experiment on OVCAR-3 ovarian, 3.17 µM and 1.76 µM; with U251 CNS, 0.00961 µM and < 0.0175 µM; with HS 578T breast, 0.0144 µM. Also, the TGI in the experiment with NCI/ADR-RES ovarian is greater than 76.4 µM; with HCT-116 colon, 7.11 µM; in the experiment with SN12C renal, 19.9 µM; with SF-268 CNS, 15.8 µM; in the experiment on NCI-H460 lung it was 13.5 µM; in the experiment on ACHN renal, 13.1 µM. In addition, the TGI with K-562 leukemia was 2.17 µM and 2.6 µM; in the experiment with OVCAR-3 ovarian, 6.12 µM; in the experiment with U251 CNS, 6.15 µM; with HS 578T breast, 14.8 µM.

In the case of `O=C1CCCC(=O)C1C(=O)c1ccc(C(F)(F)F)cc1[N+](=O)[O-]`, the GI50 with NCI/ADR-RES ovarian, with HCT-116 colon, in the experiment on SN12C renal, in the experiment with SF-268 CNS, in the experiment with NCI-H460 lung and in the experiment with ACHN renal was greater than 100 µM throughout. The GI50 in the experiment on K-562 leukemia, in the experiment with OVCAR-3 ovarian, with U251 CNS and with HS 578T breast was greater than 100 µM throughout. The TGI with NCI/ADR-RES ovarian, with HCT-116 colon, with SN12C renal, in the experiment with SF-268 CNS, with NCI-H460 lung and in the experiment with ACHN renal was greater than 100 µM throughout. Moreover, the TGI with K-562 leukemia, in the experiment with OVCAR-3 ovarian, in the experiment with U251 CNS and in the experiment with HS 578T breast was greater than 100 µM in each case.

For the origin of these results see PubChem BioAssay (NCI).
